Legend:
PS2 NTF = assay: Cycloheximide time course of PS2 fragment production in PS2 inducible cells with or without UBQLN1 transfection; format: cell-based, human
Protocol: (A) Time course experiment using ponA-induced PS2 cell line cultures transfected with or without UBQLN1 expression plasmids were treated with […] cycloheximide for 0-6 hours. Equal amounts of protein lysate were separated by 8.5% SDS-PAGE and subsequently immunoblotted with anti-UBQLN antibody. Transfected cells reveal a 4-fold increase in UBQLN1 levels. Next, the protein lysates were immunoblotted using anti-PS2 NH,-terminal antibody to detect FL and NTF PS2 levels, as indicated. Note both FL PS2 turnover and NTF production levels in transfected versus untransfected cell lysates.
(B) Same experiment as (A) except FL PS expression was not induced using PonA.
(C) Graphs showing relative levels of PS2 polypeptides in PS2 inducible cell lysates after densitometric analysis of the immunoreactive bands shown in panels A and B. The levels were calculated by normalization of the signals relative to that in Lane 1. The Microsoft Excel program was used to produce a best-fit line for each graph. […] However, this is completely opposite of NTF levels. UBQLN not only decreases NTF levels at every time-point in the experiment, but it also slows the rate of NTF production, as determined by measuring the slope of each line.
HeLa and HEK293 cells were grown in DMEM supplemented with 10% FBS. PS1 and S2 inducible cell lines were generated by transfection of the pERV-expressing HEK293 cell line (Stratgene, IaIolla, Calif.) with FL human PS2 cDNA under the control of ponasteroneA (PonA)-inducible cassette in plasmid pEGSH (Stratagene). Stable integration of the pEGSH plasmid was achieved by selection for hygromycin resistance. PS expression was induced by adding PonA (final cont. 10 pM) to the medium. For proteasome inhibition studies, cultures were treated with 40 uM MG132 (Calbiochem, San Diego, Calif.) for time periods as indicated. […]
To this end, protein synthesis was inhibited using cyclohexamide (CHX) and PS fragment production was monitored over a six-hour time period in UBQLN transfected and untransfected lysates that were either induced or uninduced for PS expression. […]

mouse cortical neurons = assay: Ubiquilin-1 overexpression in mouse primary neuronal cultures transfected with GFP-HttPolyQ74; format: cell-based
Protocol: FIG. 10. […] Mouse cortical neurons (14 days in vitro) were transiently transfected with pEGFP (3 μg each well, a), or pEGFP-HttExon-1polyQ(74) alone (3 μg each well, b), or cotransfected with both pEGFP-HttExon-1polyQ(74) and ubiquilin-1 cDNA with the ratio indicated (3 μg of pEGFP-HttExon-1polyQ(74) plus 1.5 μg or 3 μg of ubiquilin-1 cDNA; c, d).
B. Overexpression of ubiquilin-1 reduces formation of GFP-HttPolyQ(74) inclusions in cultured mouse neurons. […] Overexpression of ubiquilin-1 reduces GFP-HttPolyQ(74)-induced cell death in cultured mouse neurons. 30 hours following transfection, the cultures were stained with both Hoechst 33342 and propidium iodide (PI) and then subjected for fluorescent microscopy analysis. PI positively stained cells were treated as dead cells and only the green (GFP-positive) cells were included in the cell death analysis. Results are mean±SD.
Next it was investigated whether the modulation of polyglutamine aggregation and toxicity by ubiquilin-1 overexpression is manifested in neuronal cells, which might be more relevant in terms of controlling neurodegeneration in HD and related disorders. […] The insolubility of the Htt protein was not measured in these cells due difficulties in preparing reliable soluble and insoluble material from neurons and because of a limitation in the number for cells required for the assay.

PS1 and PS2 NTF and CTF = assay: MG132 treatment of UBQLN-transfected PS1 and PS2 stable cell lines, fragment immunoblot; format: cell-based; details: UBQLN1 transfected vs untransfected, MG132
Protocol: FIG. 3. […] (A) PS1 cells lines that were either not induced (lanes 1 and 3) or induced with PonA (lanes 2 and 4) and either left untransfected (lanes 1 and 2) or transfected with UBQLN1 expression plasmids (lanes 3 and 4) were treated for 7 h with MG132 after which protein lysates were collected and analyzed by immunoblotting. […] For clarification, if UBQLN did increase the turnover rate then by blocking degradation, turnover would be stopped and PS fragment levels would be similar, or increase, relative to that of untransfected cells. […] Densitometric analysis was used to quantify the extent of reduction. Each experiment was repeated more than three times and similar trends were observed.
(B) Same experiment and results as described in (A) except that PS2 inducible cell lines were used to examine PS2 NTF and CTF levels. […] UBQLN exerts greater effects on PS2 probably because it interacts more strongly with PS2, see [43].
HeLa and HEK293 cells were grown in DMEM supplemented with 10% FBS. PS1 and S2 inducible cell lines were generated by transfection of the pERV-expressing HEK293 cell line (Stratgene, IaIolla, Calif.) with FL human PS2 cDNA under the control of ponasteroneA (PonA)-inducible cassette in plasmid pEGSH (Stratagene). Stable integration of the pEGSH plasmid was achieved by selection for hygromycin resistance. […]

UBQLN1: PS-interacting protein ubiquilin-1, overexpressed in cells from a cDNA expression plasmid
rate of PS2 NTF production (PS2 NTF; PS induced and uninduced cells treated with CHX): slows the rate of PS2 NTF production
UBQLN1 overexpression level in transfected lysates (PS2 NTF; transfected vs untransfected, UBQLN immunoblot): 4 fold
inclusion formation (mouse cortical neurons): decreased inclusion formation
neuronal cell death (mouse cortical neurons): decreased GFP-HttPolyQ74-induced neuronal cell death
PS1 and PS2 NTF and CTF levels after MG132 treatment (PS1 and PS2 NTF and CTF): remained reduced

Source: patent publication US20110166206A1, “UBIQUILIN REGULATION OF PRESENILIN ENDOPROTEOLYSIS, AND SUPPRESSION OF POLYGLUTAMINE-INDUCED TOXICITY IN CELLS” (UNIVERSITY OF MARYLAND BIOTECHNOLOGY INSTITUTE, priority 2005, published 2011)
